Laboratory results from paper PMC6010133, “Synthesis and biological evaluation of N-arylpiperazine derivatives of 4,4-dimethylisoquinoline-1,3(2H,4H)-dione as potential antiplatelet agents” (Journal of Enzyme Inhibition and Medicinal Chemistry, 2018).
In brackets after ≈: the same amount, converted by molar mass.

Columns and labels:
alpha 2B-AR = molecular target: T1, alpha 2B-AR (Homo sapiens, UniProt P18089); experiment: Intrinsic activity assay, antagonist mode, cells with stable expression of the α2B-adrenoceptor; assay type: cell-based; settings: antagonist potency, read-out: Antagonist mode (IC50 ± SEM)
T1 sequence (P18089 1-450): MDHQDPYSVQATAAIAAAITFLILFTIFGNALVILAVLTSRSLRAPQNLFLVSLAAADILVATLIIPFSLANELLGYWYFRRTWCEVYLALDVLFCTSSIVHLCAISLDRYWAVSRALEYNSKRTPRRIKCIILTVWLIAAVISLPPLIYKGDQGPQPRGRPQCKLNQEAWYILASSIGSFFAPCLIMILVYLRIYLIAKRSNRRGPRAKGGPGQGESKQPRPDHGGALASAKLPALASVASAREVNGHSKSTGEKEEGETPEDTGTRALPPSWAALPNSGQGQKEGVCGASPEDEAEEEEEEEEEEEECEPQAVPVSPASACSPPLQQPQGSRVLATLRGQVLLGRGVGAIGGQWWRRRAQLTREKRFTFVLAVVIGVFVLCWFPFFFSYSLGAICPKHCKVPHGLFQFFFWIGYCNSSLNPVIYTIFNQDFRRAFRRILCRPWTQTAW
Method: An intrinsic activity assay was performed according to the instructions of the manufacturer of the assay kit containing ready-to-use cells with stable expression of the α2A-adrenoceptor (In-vitrogen, Life Technologies, Carlsbad, CA, USA) or α2B-adrenoceptor (PerkinElmer, Inc, Waltham, MA, USA).
Considering that a potent blockade of alpha 2B-ARs is required for the antiplatelet effect[8] ^, [9] we began an assessment of a pharmacological profile of all the synthesized molecules (3–11) with the evaluation of their alpha 2B-ARs antagonistic properties.

alpha 1-ARs = experiment: Radioligand binding assay, displacement of [3H]prazosin on rat cerebral cortex; settings: read-out: Affinity for alpha 1-ARs Ki ± SD
Method: The affinity of the obtained compounds was evaluated by radioligand binding assays (the ability to displace [3H] prazosin and [3H]clonidine from a1- and a2-AR, respectively) on rat cerebral cortex. The brains are homogenised in 20 volumes of an ice-cold 50 mM Tris–HCl buffer (pH 7.6) and is centrifuged at 20,000 g for 20 min (0–4 °C). The cell pellet is resus-pended in the Tris–HCl buffer and centrifuged again. Radioligand binding assays are performed in plates (MultiScreen/Millipore). The final incubation mixture (final volume 300 μL) consisted of 240 µl of the membrane suspension, 30 μL of [3H]prazosin (0.2 nM) or [3H]clonidine (2 nM) solution and 30 μL of the buffer containing seven to eight concentrations (1.0^−11 to 1.0^−4 M) of the tested compounds. For measuring the unspecific binding, phentolamine, 10 µM (in the case of [3H]prazosin) and clonidine, 10 μM (in the case of [3H]clonidine) are applied. The incubation is terminated by rapid filtration over glass fiber filters (Whatman GF/C) using a vacuum manifold (Millipore). The filters are then washed twice with the assay buffer and placed in scintillation vials with a liquid scintillation cocktail. Radioactivity was measured in a WALLAC 1409 DSA liquid scintillation counter. All the assays were performed in duplicate.
Subsequently, we determined the selectivity vs. alpha 1-adrenoreceptor (Table 4). The final compounds 3–11 were submitted to a radioligand binding assay, measuring the ability to displace [^3H] prazosin from alpha 1-ARs, in the rat cerebral cortex. […] On the other hand, the introduction of a hydrophobic group into meta position of the phenylpiperazine ring (3, 4, 5, 6) caused a relatively weaker decrease. […] The incorporation of a bulky substituents such as; 2,2-dimethylbenzo[d][1,3]dioxole (9), benzo[d]oxazol-2(3H)-one (10), 2H-benzo[b][1,4]oxazin-3(4H)-one (11) maintained the affinity for alpha1-ARs.

[1] = tested on: whole rat blood aggregation induced by ADP and adrenaline; experiment: In vitro whole blood aggregation test induced by ADP and adrenaline (Multiplate); assay type: cell-based; settings: for IC50: whole rat blood, ADP and adrenaline 1.6 µM + 50 µM, read-out: B (ADP + A) IC50
Method: (§1) In vitro aggregation tests were conducted using freshly collected whole blood with Multiplate platelet function analyzer (Roche Diagnostics Polska Sp. z o.o., Warsaw, Poland), the five-channel aggregometer based on measurements of electric impedance. The Multiplate analyzer allows the duplicate measurement with dual electrode probes. Blood was drawn from carotid of rats with hirudin blood tube (Roche Diagnostic). 300 μL of hirudin anticoagulated blood was mixed with 300 μL pre-warmed isotonic saline solution containing studied compound in DMSO or DMSO (0.1% final) and pre-incubated for 3 min at 37 °C with continuous stirring. The agonists (ADPtest, COLtest, Roche Diagnostic) were diluted using isotonic sterile NaCl solution. Aggregation was induced by adding collagen (final concentration 1.6 µg/mL), or adrenaline and subthreshod concentration of ADP (final concentration 50 µM + 1.6 µM). Activated platelet function was recorded for 6 min. The Multiplate software analyzed the area under the curve of the clotting process of each measurement and calculated the mean values.
(§2) Data were presented as Mean ± SEM. Statistical comparisons were made by the analysis of variance (ANOVA) and significance of the differences between control group and treated groups was determined by Dunnet post hoc test. p < .05 was considered significant.
(§3) Based on the aforementioned results, the most interesting compounds (3, 4, 9, and 10) were selected for further studies. In order to evaluate the anti-platelet effects of the new compounds in vitro, freshly isolated rat whole blood was incubated with selected compounds (3–100 μM) or vehicle (DMSO), and the aggregation responses were evaluated with multiplate whole blood aggregometer by measuring impedance change. Platelet aggregation was induced by collagen or sub-threshold concentration of ADP and adrenaline. ARC-239 was used as a reference compound.
Combining adrenaline with the sub-threshold concentration of ADP produced a maximal aggregation response. The adrenaline-mediated amplification of ADP-stimulated aggregation was attenuated when rat blood was pre-incubated with 3, 9, 10, and ARC-239.

[2] = tested on: whole rat blood aggregation induced by collagen; experiment: In vitro whole blood aggregation test induced by collagen (Multiplate); assay type: cell-based; settings: for IC50: whole rat blood, collagen 1.6 µg/mL; for anti-platelet efficacy at lower concentration: compound at 30 μM
Method: as §1, §2, §3

[3] = Aqueous solubility (Eurofins bioavailability panel); assay type: physicochemical; settings: kinetic from dmso stock
Method: (§4) The in vitro bioavailability assays were performed by Eurofins Panlabs Inc. (St Charles, USA) according to the methods reported in publications listed below:
Solubility: Lipinski, C.A et al. (2001) Adv Drug Del Rev, 46:3–26[32],
(§5) Concerning the described above results, for the most promising compound 3, we performed early in vitro bioavailability assays, including aqueous solubility, human plasma protein binding, human liver microsomes stability, and Caco-2 permeability (Eurofins Bioavailability panel).

[4] = Protein binding (plasma, human); assay type: in vitro ADME; settings: 1.0E-05 M
Method: as §4
Protein binding: Banker, M.J et al. (2003) J. Pharm. Sci., 92:967–974[33],
as §5

Caco-2 permeability = assay type: in vitro ADME; settings: human; Caco-2, pH 6.5/7.4; 1.0E-05 M
Method: as §4
Caco-2 permeability: Hidalgo, I.J et al. (1989) Gastroenterology, 96:736–749[34],
as §5

[5] = Metabolic stability (liver microsomes, human); assay type: in vitro ADME
Method: as §4
Microsomal stability: Obach, R.S et al. (1997) J Pharmacol Exp Ther, 283:[…][35].
as §5

Structure (SMILES)	IC50 (alpha 2B-AR)	Ki (alpha 1-ARs)	IC50 [1]	IC50 [2]	anti-platelet efficacy at lower concentration ([2]; collagen-induced)	also measured
CC1(C)C(=O)N(CCN2CCN(c3cccc(O)c3)CC2)C(=O)c2ccccc21 [Compound 7, 2–(2-(4–(3-hydroxyphenyl)piperazin-1-yl)ethyl)-4,4-dimethylisoquinoline-1,3(2H,4H)-dione]	758 ± 160 nM	81.7 ± 5.5 nM	–	–	–	–
COc1cccc(N2CCN(CCN3C(=O)c4ccccc4C(C)(C)C3=O)CC2)c1 [Compound 6, 2–(2-(4–(3-Methoxyphenyl)piperazin-1-yl)ethyl)-4,4-dimethylisoquinoline-1,3(2H,4H)-dione]	> 1000 nM	78.4 ± 3.8 nM	–	–	–	–
CC1(C)C(=O)N(CCN2CCN(c3cccc4c3OCC(=O)N4)CC2)C(=O)c2ccccc21 [Compound 11, 4,4-Dimethyl-2–(2-(4–(3-oxo-3,4-dihydro-2H-benzo[b][1,4]oxazin-8-yl)piperazin-1-yl)ethyl)isoquinoline-1,3(2H,4H)-dione]	> 1000 nM	3 ± 0.1 nM	–	–	–	–
CC1(C)C(=O)N(CCN2CCN(c3ncccn3)CC2)C(=O)c2ccccc21 [Compound 8, 4,4-Dimethyl-2–(2-(4-(pyrimidin-2-yl)piperazin-1-yl)ethyl)isoquinoline-1,3(2H,4H)-dione]	> 1000 nM	1500 ± 100 nM	–	–	–	–
CC1(C)C(=O)N(CCN2CCN(c3cccc4[nH]c(=O)oc34)CC2)C(=O)c2ccccc21 [Compound 10, 4,4-Dimethyl-2–(2-(4–(2-oxo-2,3-dihydrobenzo[d]oxazol-7-yl)piperazin-1-yl)ethyl)isoquinoline-1,3(2H,4H)-dione]	61 ± 22.5 nM	10.3 ± 0.3 nM	76.5 ± 5.8 µM	–	–	–
COc1ccccc1N1CCN(CCN2C(=O)c3ccccc3C(C)(C)C2=O)CC1 [ARC-239, reference compound]	8.4 ± 3.2 nM	0.3 nM	63.9 ± 21.3 µM	20.7 ± 14.7 µM	–	–
CC1(C)C(=O)N(CCN2CCN(c3cccc(Cl)c3)CC2)C(=O)c2ccccc21 [Compound 4, 2–(2-(4–(3-Chlorophenyl)piperazin-1-yl)ethyl)-4,4-dimethylisoquinoline-1,3(2H,4H)-dione]	251 ± 71 nM	93 ± 2 nM	–	34.5 ± 2.5 µM	significant anti-platelet efficacies	inhibition against ADP and adrenaline induced blood aggregation ([1]; up to 100 μM): did not exhibit any significant inhibition
CC1(C)C(=O)N(CCN2CCN(c3cccc(C(F)(F)F)c3)CC2)C(=O)c2ccccc21 [Compound 5, 4,4-Dimethyl-2–(2-(4–(3-(trifluoromethyl)phenyl)piperazin-1-yl)ethyl)isoquinoline-1,3(2H,4H)-dione]	> 1000 nM	703 ± 1 nM	–	–	–	–
CC1(C)C(=O)N(CCN2CCN(c3cccc(F)c3)CC2)C(=O)c2ccccc21 [Compound 3, 2–(2-(4–(3-Fluorophenyl)piperazin-1-yl)ethyl)-4,4-dimethylisoquinoline-1,3(2H,4H)-dione]	61 ± 25.4 nM	30 ± 1 nM	20.5 ± 7.1 µM	26.9 ± 18.8 µM	significant anti-platelet efficacies	solubility ([3]; PBS, pH 7.4, aqueous buffer): 5.4 µM (≈ 2.14 µg/mL); solubility ([3]; fassgf or other biorelevant, simulated intestinal fluid, test concentration 2.0E-04 M): 68 µM (≈ 26.9 µg/mL); solubility ([3]; simulated gastric fluid): 151 µM (≈ 59.7 µg/mL); % Protein bound [4]: 99%; Papp A→B at 10 µM (Caco-2 permeability): 7.7 ×10⁻⁶ cm/s; Papp B→A at 10 µM (Caco-2 permeability): 2.6 ×10⁻⁶ cm/s; half-life at 100 nM ([5]; 1.0E-07 M): 14.1 min; microsomal CLint at 100 nM ([5]; 1.0E-07 M, read-out: Intrinsic clearance): 14 µL/min/mg; % Compound remaining ([5]; incubation time 0 minutes): 100.0%; % Compound remaining ([5]; incubation time 15 minutes): 49%; % Compound remaining ([5]; incubation time 30 minutes): 18%; % Compound remaining ([5]; incubation time 45 minutes): 8%; % Compound remaining ([5]; incubation time 60 minutes): 6%
CC1(C)Oc2cccc(N3CCN(CCN4C(=O)c5ccccc5C(C)(C)C4=O)CC3)c2O1 [Compound 9, 2–(2-(4–(2,2-Dimethylbenzo[d][1,3]dioxol-4-yl)piperazin-1-yl)ethyl)-4,4-dimethylisoquinoline-1,3(2H,4H)-dione]	47 ± 12.8 nM	30 ± 0.2 nM	54.4 ± 5.4 µM	27.4 ± 5.3 µM	significant anti-platelet efficacies	platelet aggregation attenuated to ([2]; collagen-induced, compound at 100 μM): 59.3%
